Assay results from ChEMBL document CHEMBL1133024, “Antineoplastic agents. 443. Synthesis of the cancer cell growth inhibitor hydroxyphenstatin and its sodium diphosphate prodrug” (J Med Chem, 2000).
≈ marks a conversion by molar mass, not a printed value.

Experiments:
Escherichia coli = test: Evaluated for antimicrobial activity against Escherichia coli; assay type: functional
Candida albicans = test: Evaluated for antimicrobial activity against Candida albicans; assay type: functional
Neisseria gonorrhoeae = test: Evaluated for antimicrobial activity against Neisseria gonorrhoeae; assay type: functional
Cryptococcus neoformans = test: Evaluated for antimicrobial activity against Cryptococcus neoformans; assay type: functional
DU-145 [1] = test: Evaluated for growth inhibition (anticancer activity) of Human prostate cancer DU-145 cell line; assay type: functional
BXPC-3 = test: Evaluated for growth inhibition (anticancer activity) of human pancreas-a BXPC-3 cell line.; assay type: functional
NCI-H460 [2] = test: Evaluated for growth inhibition (anticancer activity) of Human lung-NSC cancer NCI-H460 cell line; assay type: functional
P388 = test: Evaluated for growth inhibition (anticancer activity) of Murine P388 lymphocytic leukemia cell line; assay type: functional; conditions: Mus musculus
KM-20L2 = test: Evaluated for growth inhibition (anticancer activity) of Human colon KM20L2 cancer cell line; assay type: functional
Tubulin alpha chain = Tubulin alpha chain (Sus scrofa, UniProt P02550); test: Inhibition of tubulin polymerization; assay type: functional
SF-295 [3] = test: Evaluated for growth inhibition (anticancer activity) of Human CNS cancer SF-295 cell line; assay type: functional
RPMI-7951 = test: Evaluated for growth inhibition (anticancer activity) of Human melanoma cancer RPMI-7951 cell line; assay type: functional
[4] = molecular target: Tubulin alpha chain (Sus scrofa) (UniProt P02550); test: Inhibition of colchicine binding; assay type: functional; conditions: concentration not given here
NCI-H460 [5] = test: Evaluated for growth inhibition (anticancer activity) of Human lung-NSC cancer NCI-H460 cell line
SF-295 [6] = test: Evaluated for growth inhibition (anticancer activity) in Human CNS cancer SF-295 cell line; assay type: functional
Staphylococcus aureus = test: Evaluated for antimicrobial activity against Staphylococcus aureus; assay type: functional
[7] = tested on: Stenotrophomonas maltophilia; test: Evaluated for antimicrobial activity against Stenotrophomonas maltophilia; assay type: functional
Micrococcus luteus = test: Antimicrobial activity against Micrococcus luteus.; assay type: functional
DU-145 [8] = test: Evaluated for growth inhibition (anticancer activity) in Human prostate cancer DU-145 cell line; assay type: functional

Chain of Tubulin alpha chain (Sus scrofa) (P02550 whole entry, looked up): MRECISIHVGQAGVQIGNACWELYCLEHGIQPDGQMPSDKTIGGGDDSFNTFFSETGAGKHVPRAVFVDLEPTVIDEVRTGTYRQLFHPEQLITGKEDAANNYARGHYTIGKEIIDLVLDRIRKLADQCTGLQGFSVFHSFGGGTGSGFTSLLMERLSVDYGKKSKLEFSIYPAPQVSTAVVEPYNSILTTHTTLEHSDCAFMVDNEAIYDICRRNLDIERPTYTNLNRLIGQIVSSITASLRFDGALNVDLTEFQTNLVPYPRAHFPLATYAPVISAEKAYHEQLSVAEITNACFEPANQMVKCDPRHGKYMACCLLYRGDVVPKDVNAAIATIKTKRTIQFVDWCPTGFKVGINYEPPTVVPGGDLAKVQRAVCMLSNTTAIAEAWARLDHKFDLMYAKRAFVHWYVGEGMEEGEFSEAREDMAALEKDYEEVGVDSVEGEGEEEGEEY
Chain of Tubulin alpha chain (P02550 whole entry, looked up): as above

GI50 (DU-145 [1]) | GI50 (BXPC-3) | GI50 (NCI-H460 [2]) | GI50 (P388) | Compound | GI50 (KM-20L2) | IC50 (Tubulin alpha chain) | GI50 (SF-295 [3]) | other results
– | – | – | – | COc1ccc(Br)c(C=O)c1OC(C)=O | – | – | – | MIC (Escherichia coli): 50 ug disk-1; MIC (Candida albicans): 12.5 ug disk-1; MIC (Neisseria gonorrhoeae): 25 ug disk-1; MIC (Cryptococcus neoformans): 6.25 ug disk-1
0.3 µg/mL | 5.3 µg/mL | 0.35 µg/mL | 0.0336 µg/mL | COc1cc(C(=O)c2ccc(OC)c(OP(=O)([O-])[O-])c2OP(=O)([O-])[O-])cc(OC)c1OC.[Na+].[Na+].[Na+].[Na+] | 33.5 µg/mL | > 40 µM | 0.23 µg/mL | –
> 10 µg/mL | > 10 µg/mL | > 10 µg/mL | > 10 µg/mL | COCOc1c(OC)ccc(C(=O)c2cc(OC)c(OC)c(OC)c2)c1OCOC | – | – | > 10 µg/mL | GI50 (RPMI-7951): > 10 µg/mL; inhibition [4]: > 10%
– | – | – | – | COc1ccc(Br)c(O)c1O | – | – | – | MIC (Staphylococcus aureus): 25 ug disk-1; MIC (Escherichia coli): 50 ug disk-1; MIC [7]: 25 ug disk-1; MIC (Neisseria gonorrhoeae): <6.25 ug disk-1
32.5 µg/mL (≈ 89.7 µM) | 14.2 µg/mL (≈ 39.2 µM) | 19 µg/mL (≈ 52.4 µM) | > 10 µg/mL | COc1cc(C(=O)c2ccc(OC)c(OC)c2OC)cc(OC)c1OC | – | – | 23.1 µg/mL (≈ 63.7 µM) | –
0.17 µg/mL (≈ 0.512 µM) | 4.4 µg/mL (≈ 13.2 µM) | – | 0.3 µg/mL (≈ 0.903 µM) | COc1ccc(/C=C\c2cc(OC)c(OC)c(OC)c2)c(O)c1O [COMBRETASTATIN A-1] | 0.061 µg/mL (≈ 0.184 µM) | 1.1 µM | – | inhibition [4]: 99.6%; GI50 (NCI-H460 [5]): 0.74 µg/mL (≈ 2.23 µM)
0.0008 µg/mL (≈ 0.00253 µM) | 0.39 µg/mL (≈ 1.23 µM) | 0.0006 µg/mL (≈ 0.0019 µM) | 0.0003 µg/mL (≈ 0.000948 µM) | COc1ccc(/C=C\c2cc(OC)c(OC)c(OC)c2)cc1O [COMBRETASTATIN A4] | 0.34 µg/mL (≈ 1.07 µM) | – | > 0.001 µg/mL | –
– | – | – | – | COc1cccc(C=O)c1OC(C)=O | – | – | – | MIC [7]: 50 ug disk-1; MIC (Cryptococcus neoformans): 25 ug disk-1
– | – | – | – | COc1ccc(Br)c(C=O)c1O | – | – | – | MIC (Candida albicans): 50 ug disk-1; MIC (Neisseria gonorrhoeae): 12.5 ug disk-1; MIC (Cryptococcus neoformans): 12.5 ug disk-1
– | 1.5 µg/mL | 0.038 µg/mL | < 0.01 µg/mL | COc1cc(/C=C\c2ccc(OC)c(OP(=O)([O-])[O-])c2OP(=O)([O-])[O-])cc(OC)c1OC.[Na+].[Na+].[Na+].[Na+] | – | – | 0.036 µg/mL | GI50 (DU-145 [8]): 0.034 µg/mL

Compound | GI50 (DU-145 [1]) | GI50 (BXPC-3) | GI50 (NCI-H460 [2]) | GI50 (P388) | GI50 (KM-20L2) | IC50 (Tubulin alpha chain) | GI50 (SF-295 [3]) | other results
COc1ccc(/C=C\c2cc(OC)c(OC)c(OC)c2)cc1OP(=O)([O-])[O-].[Na+].[Na+] [FOSBRETABULIN DISODIUM] | – | – | – | 0.0004 µg/mL | 0.53 µg/mL | > 40 µM | – | GI50 (NCI-H460 [5]): 0.029 µg/mL; GI50 (SF-295 [6]): 0.036 µg/mL
COc1ccc(C(=O)c2cc(OC)c(OC)c(OC)c2)c(O)c1O [HYDROXYPHENSTATIN] | 0.048 µg/mL (≈ 0.144 µM) | 3.5 µg/mL (≈ 10.5 µM) | 0.21 µg/mL (≈ 0.628 µM) | 0.315 µg/mL (≈ 0.942 µM) | – | 0.82 µM | 0.04 µg/mL (≈ 0.12 µM) | GI50 (RPMI-7951): 0.58 µg/mL (≈ 1.73 µM); inhibition [4]: 77%
COc1cc(C(=O)c2ccc(OC)c(OP(=O)(OCc3ccccc3)OCc3ccccc3)c2OP(=O)(OCc2ccccc2)OCc2ccccc2)cc(OC)c1OC | > 10 µg/mL | > 10 µg/mL | > 10 µg/mL | 2.55 µg/mL (≈ 2.98 µM) | 5.9 µg/mL (≈ 6.9 µM) | – | > 10 µg/mL | MIC (Micrococcus luteus): 50 µg/mL (≈ 58.5 µM); GI50 (RPMI-7951): > 10 µg/mL
